In patent US6906205B2, “Spiro and dispiro 1,2,4-trioxolane antimalarials” (Medicines for Malaria Venture MMV, priority 2002, dated 2005):
Values after ≈ are worked out from the molar mass of the structure shown.

Columns and labels:
[1] = test system: P. falciparum K1 strain (Thailand resistant to chloroquine); assay: semiautomated microdilution assay, [3H]-hypoxanthine incorporation, K1 strain; type: cell-based, Plasmodium falciparum; conditions: K1 strain, 72 h incubation
Outline: (§1)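 Compounds were tested against intraerythrocytic parasites taken from asynchronous stock cultures, using semiautomated microdilution. IC50 values were estimated by logit regression analysis.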

[2] = test system: P. falciparum NF54 strain (sensitive to standard antimalarials); assay: semiautomated microdilution assay, [3H]-hypoxanthine incorporation, NF54 strain; type: cell-based, Plasmodium falciparum; conditions: NF54 strain, 72 h incubation
Outline: as §1

[3] = test system: ANKA strain of P. berghei; assay: single dose STI in vivo screen in infected mice; set-up: species or system Plasmodium berghei; conditions: for Activity (%) po / Activity (%) sc / Activity (%) SSVpo: percent reduction in parasitemia day 3 post-infection, mice; for Activity (%) po / Survival (days) po: single 10 mg/kg po in 3% ethanol and 7% Tween 80; for Activity (%) sc / Survival (days) sc: single 10 mg/kg sc in 3% ethanol and 7% Tween 80; for Activity (%) SSVpo: single po dose in standard suspending vehicle (SSV); for Survival (days) po / Survival (days) sc / Survival (days) SSVpo: untreated control 5.6 ± 0.3; for Survival (days) SSVpo: single po dose in SSV
Outline: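 Groups of 3-5 Moro SPF or NMRI mice infected with the ANKA strain of P. berghei received a single dose of trioxolane on day one post-infection. The compound was given in 3% ethanol and 7% Tween 80 or in SSV (0.5% w/v CMC, 0.5% v/v benzyl alcohol, 0.4% v/v Tween 80, 0.9% w/v sodium chloride in water). Antimalarial activity was scored as percent reduction in parasitemia on day three and as survival time versus untreated controls. Survival to day 30 counted as cure.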

[4] = test system: Schistosoma mansoni 21-day-old schistosomules; assay: effect on 21-day-old schistosomules in mice; type: in vivo; conditions: single 200 mg/kg per os, female mice
Experimental: All groups were killed 4 weeks after treatment and the liver and intestine were removed and separated. The liver and intestine were compressed and alive male and female worms could be seen and counted. The effect of the compounds was evaluated by mean total and female worm burden.

[5] = test system: Schistosoma mansoni adult schistosomes (49-day-old); assay: effect on adult schistosomes (49-day-old) in mice; type: in vivo; conditions: for Tox (mice): infected mice
Experimental: Mice were infected with 100 Schistosoma mansoni cercariae […]. Each group was treated per os with OZ compounds at single doses of 200, 400, and 600 mg/kg. […] All groups were killed 4 weeks after treatment and the liver and intestine were removed and separated. The liver and intestine were compressed and alive male and female worms could be seen and counted.

Structure (SMILES) | IC50 (ng/ml) K1 [1] | IC50 (ng/ml) NF54 [2] | Activity (%) po [3] | Activity (%) sc [3] | Activity (%) SSVpo [3] | Survival (days) po [3] | Survival (days) sc [3] | Survival (days) SSVpo [3] | % reduction of schistosomule growth at day 21 after per os application of 200 mg/kg, FWR (%) [4] | % reduction of schistosomule growth at day 21 after per os application of 200 mg/kg, TWR (%) [4] | Activity (%) po ([3]; 10 mg/kg) | Activity (%) sc ([3]; 10 mg/kg) | Survival (days) po ([3]; 10 mg/kg) | Survival (days) sc ([3]; 10 mg/kg) | Tox (mice) ([5]; 200 mg/kg per os) | Tox (mice) ([5]; 400 mg/kg per os) | % reduction of adult worms growth at day 49 after per os application of 200 mg/kg, TWR (%) ([5]; single 200 mg/kg per os) | adult worms at day 49, per os 200 mg/kg, DEAD WORM (%) ([5]; single 200 mg/kg per os) | % reduction of adult worms growth at day 49 after per os application of 400 mg/kg, TWR (%) ([5]; single 400 mg/kg per os) | adult worms at day 49, per os 400 mg/kg, DEAD WORM (%) ([5]; single 400 mg/kg per os)
ON=C1CCC2(CC1)OOC1(O2)C2CC3CC(C2)CC1C3 (centres unmarked) [OZ16] | 0.45 ng/mL (≈ 1.53 nM) | 0.67 ng/mL (≈ 2.28 nM) | 79% | 99.2% | 83% | 6.7 days | 7.3 days | 6.7 days | 77% | 78% | – | – | – | – | – | – | – | – | – | –
c1ccc(CON=C2CCC3(CC2)OOC2(O3)C3CC4CC(C3)CC2C4)cc1 (centres unmarked) [OZ19] | 1.3 ng/mL (≈ 3.39 nM) | 2.7 ng/mL (≈ 7.04 nM) | 98.3% | 99.98% | 56% | 7.5 days | 13.4 days | 6.0 days | 74% | 77% | – | – | – | – | – | – | – | – | – | –
C1CC2(CCO1)OOC1(O2)C2CC3CC(C2)CC1C3 (centres unmarked) [OZ22] | 0.32 ng/mL (≈ 1.2 nM) | 0.56 ng/mL (≈ 2.1 nM) | 35% | 99.6% | – | 6.0 days | 7.7 days | – | 76% | 75% | – | – | – | – | – | – | – | – | – | –
CC1(C)CC(C)(C)CC2(C1)OOC1(O2)C2CC3CC(C2)CC1C3 (centres unmarked) [OZ26] | 3.1 ng/mL (≈ 9.67 nM) | 5.0 ng/mL (≈ 15.6 nM) | 88% | 99.9% | – | 7.0 days | 9.7 days | – | 40% | 37% | – | – | – | – | – | – | – | – | – | –
CC(C)(C)ON=C1CCC2(CC1)OOC1(O2)C2CC3CC(C2)CC1C3 (centres unmarked) [OZ28] | 2.1 ng/mL (≈ 6.01 nM) | 2.5 ng/mL (≈ 7.15 nM) | 93% | 99.97% | – | 7.3 days | 12.3 days | – | 87% | 81% | – | – | – | – | – | – | – | – | – | –
O=C(NN=C1CCC2(CC1)OOC1(O2)C2CC3CC(C2)CC1C3)Nc1ccccc1 (centres unmarked) [OZ30] | 0.65 ng/mL (≈ 1.58 nM) | 1.3 ng/mL (≈ 3.16 nM) | 0% | 86% | – | 5.3 days | 9.0 days | – | 12% | 16% | – | – | – | – | – | – | – | – | – | –
CC1(C)CCC2(CC1)OOC1(O2)C2CC3CC(C2)CC1C3 (centres unmarked) [OZ33] | 2.3 ng/mL (≈ 7.87 nM) | 3.5 ng/mL (≈ 12 nM) | 80% | 99.97% | – | 6.7 days | 11.7 days | – | 14% | 28% | – | – | – | – | – | – | – | – | – | –
CC(C)(C)OC(=O)N1CCC2(CC1)OOC1(O2)C2CC3CC(C2)CC1C3 (centres unmarked) [OZ35] | 1.7 ng/mL (≈ 4.65 nM) | 2.1 ng/mL (≈ 5.75 nM) | 74% | 99.98% | – | 6.3 days | 9.3 days | – | 63% | 73% | – | – | – | – | – | – | – | – | – | –
CON=C1CC2CC3(CC2C1)OOC1(O3)C2CC3CC(C2)CC1C3 (centres unmarked) [OZ37] | – | – | 83% | 99.98% | – | 6.7 days | 13 days | – | 53% | 63% | – | – | – | – | – | – | – | – | – | –
CS(=O)(=O)N1CCC2(CC1)OOC1(O2)C2CC3CC(C2)CC1C3 (centres unmarked) [OZ56] | 0.59 ng/mL (≈ 1.72 nM) | 0.64 ng/mL (≈ 1.86 nM) | 93% | 99.97% | 63% | 6.7 days | 10.3 days | 5.7 days | 66% | 69% | – | – | – | – | – | – | – | – | – | –
CC(C)(C)CC(=O)N1CCC2(CC1)OOC1(O2)C2CC3CC(C2)CC1C3 (centres unmarked) [OZ111] | 0.92 ng/mL (≈ 2.53 nM) | – | 98% | 99.94% | 79% | 7.7 days | 8.3 days | 6.3 days | 68% | 71% | – | – | – | – | – | – | – | – | – | –
c1cn(C[C@H]2CC[C@]3(CC2)OOC2(O3)C3CC4CC(C3)CC2C4)cn1 (some centres unmarked) [OZ145] | 0.50 ng/mL (≈ 1.45 nM) | 0.76 ng/mL (≈ 2.21 nM) | – | – | 99.21% | – | – | 10.7 days | 83% | 80% | 99.82% | 99.87% | 8.3 days | 10.7 days | – | – | – | – | – | –
O=C(C[C@H]1CC[C@]2(CC1)OOC1(O2)C2CC3CC(C2)CC1C3)N1CCOCC1 (some centres unmarked) [OZ189] | 1.7 ng/mL (≈ 4.34 nM) | 3.0 ng/mL (≈ 7.66 nM) | 95% | 98% | 99.79% | 9.3 days | 10.7 days | 9.0 days | – | – | – | – | – | – | *Tox: 2/3 | Tox: 3/3 ^ | 0% | 17% | – | –
C1=C(c2ccccc2)CCC2(C1)OOC1(O2)C2CC3CC(C2)CC1C3 (centres unmarked) [OZ226] | 4.0/4.0 ng/ml | 4.0/4.0 ng/ml | 0% | 99.92% | 0% | 5.0 days | 11.0 days | 5.3 days | – | – | – | – | – | – | – | – | – | – | 52% | 0%
